Laboratory results: article PMC6433957, “Phenylpyrrole fungicides act on triosephosphate isomerase to induce methylglyoxal stress and alter hybrid histidine kinase activity” (Scientific Reports, 2019)

Molecular target: T1, triosephosphate isomerase (TPI) (Saccharomyces cerevisiae, UniProt P00942)
T1 construct: gene TPI1; commercial Triosephosphate isomerase (from S. cerevisiae, Sigma)
T1 sequence (P00942 2-248): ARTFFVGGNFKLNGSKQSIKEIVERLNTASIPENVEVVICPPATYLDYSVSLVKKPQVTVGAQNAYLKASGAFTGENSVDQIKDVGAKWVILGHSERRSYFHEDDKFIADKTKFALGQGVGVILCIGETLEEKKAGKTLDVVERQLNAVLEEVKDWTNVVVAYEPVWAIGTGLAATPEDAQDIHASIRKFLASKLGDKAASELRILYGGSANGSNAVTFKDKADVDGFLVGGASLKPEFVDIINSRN
Assay: coupled alpha-glycerophosphate dehydrogenase/NADH assay (A340) with purified TPI; also in vitro methylglyoxal release by TPI (diaminobenzene adduct)
Assay type: biochemical

## N#Cc1c[nH]cc1-c1cccc2c1OC(F)(F)O2 [fludioxonil]
  IC50: ~403 µM
